Reference: patent US20200002303A1, “C-GLYCOSIDE COMPOUNDS USEFUL FOR TREATING DISEASE” (Fimbrion Therapeutics, Inc., priority 2016, published 2020)

Target: T1, FimH (Escherichia coli, UniProt Q1R2J4)
T1 construct: performed with UTI89 bacteria and guinea pig red blood cells; endogenous in cells; host or cells: UTI89 bacteria (whole cells, type 1 piliated)
Assay type: cell-based
Conditions: concentration reducing bacterial agglutination of guinea pig red blood cells by greater than 90%; UTI89 bacteria
Procedure: The hemagglutination inhibition (HAI) assay was performed with UTI89 bacteria and guinea pig red blood cells, as previously described (S. J. Hultgren, W. R. Schwan, A. J. Schaeffer, J. L. Duncan Infect. Immun. 1986, 54, 613-620).

Compound	HAI titer EC>90 [µM]
Cc1cc(-c2ccc3c(c2)C(=O)N(C(C)C)CC3)ccc1[C@@H](O)[C@H]1O[C@H](CO)[C@@H](O)[C@H](O)[C@@H]1O [Example 32, 7-(4-((R)-Hydroxy ((2R,3S,4S,5S,6R)-3,4,5-trihydroxy-6-(hydroxymethyl)-tetrahydro-2H-pyran-2-yl)methyl)-3-methylphenyl)-2-isopropyl-3,4-dihydroisoquinolin-1 (2H)-one]	0.006
Cc1cc(-c2cccc3c2CNC3=O)ccc1[C@@H](O)[C@H]1O[C@H](CO)[C@@H](O)[C@H](O)[C@@H]1O [Example 13, 4-(4-((R)-Hydroxy ((2R,3S,4S,5S,6R)-3,4,5-trihydroxy-6-(hydroxymethyl)-tetrahydro-2H-pyran-2-yl)methyl)-3-methylphenyl)isoindolin-1-one]	0.083
Cc1cc(-c2ccc3onc(C)c3c2)ccc1[C@@H](O)[C@H]1O[C@H](CO)[C@@H](O)[C@H](O)[C@@H]1O [Example 20, (2R,3S,4S,5S,6R)-2-((R)-Hydroxy (2-methyl-4-(3-methylbenzo[d]isoxazol-5-yl)phenyl)methyl)-6-(hydroxymethyl)-tetrahydro-2H-pyran-3,4,5-triol]	0.068
Cc1cc(-n2cc(-c3ccccc3)nn2)ccc1[C@@H](O)[C@H]1O[C@H](CO)[C@@H](O)[C@H](O)[C@@H]1O [Example 48, (2R,3S,4S,5S,6R)-2-((R)-hydroxy(2-methyl-4-(4-phenyl-1H-1,2,3-triazol-1-yl)phenyl)methyl)-6-(hydroxymethyl)tetrahydro-2H-pyran-3,4,5-triol]	0.016
O=C1NCCc2ccc(-c3ccc([C@@H](O)[C@H]4O[C@H](CO)[C@@H](O)[C@H](O)[C@@H]4O)c(C(F)(F)F)c3)cc21 [Example 33, 7-(4-((R)-Hydroxy ((2R,3S,4S,5S,6R)-3,4,5-trihydroxy-6-(hydroxymethyl)-tetrahydro-2H-pyran-2-yl)methyl)-3-(trifluoromethyl)phenyl)-3,4-dihydroisoquinolin-1 (2H)-one]	0.006
CNC(=O)c1cccc(-c2ccc([C@@H](O)[C@H]3O[C@H](CO)[C@@H](O)[C@H](O)[C@@H]3O)c(Cl)c2)c1 [Example 45, 3′-chloro-4′-((R)-hydroxy((2R,3S,4S,5S,6R)-3,4,5-trihydroxy-6-(hydroxymethyl)tetrahydro-2H-pyran-2-yl)methyl)-N-methylbiphenyl-3-carboxamide]	0.047
CNC(=O)c1cc(C#N)cc(-c2ccc([C@@H](O)[C@H]3O[C@H](CO)[C@@H](O)[C@H](O)[C@@H]3O)c(C)c2)c1 [Example 42, 5-Cyano-4′-((R)-hydroxy ((2R,3S,4S,5S,6R)-3,4,5-trihydroxy-6-(hydroxymethyl)-tetrahydro-2H-pyran-2-yl)methyl)-N,5′-dimethylbiphenyl-3-carboxamide]	0.006
CNC(=O)c1cccc(-c2ccc(C(OC)[C@H]3O[C@H](CO)[C@@H](O)[C@H](O)[C@@H]3O)cc2C)c1 (single isomer, unassigned) [Example 8]	0.5
Cc1cc(-c2cccc(C(=O)Nc3ccccn3)c2)ccc1[C@@H](O)[C@H]1O[C@H](CO)[C@@H](O)[C@H](O)[C@@H]1O [Example 37, 4′-((R)-Hydroxy ((2R,3S,4S,5S,6R)-3,4,5-trihydroxy-6-(hydroxymethyl)-tetrahydro-2H-pyran-2-yl)methyl)-5′-methyl-N-(pyridin-2-yl)biphenyl-3-carboxamide]	0.012
CNC(=O)c1cccc(-c2ccc([C@@H](OC)[C@H]3O[C@H](CO)[C@@H](O)[C@H](O)[C@@H]3O)c(C)c2)c1 [Example 7, 4′-((R)-methoxy((2S,3S,4S,5S,6R)-3,4,5-trihydroxy-6-(hydroxymethyl)tetrahydro-2H-pyran-2-yl)methyl)-N,3′-dimethylbiphenyl-3-carboxamide]	2
Cc1cc(-c2ccc3c(c2)C(=O)NC3)ccc1[C@@H](O)[C@H]1O[C@H](CO)[C@@H](O)[C@H](O)[C@@H]1O [Example 19, 6-(4-((R)-Hydroxy ((2R,3S,4S,5S,6R)-3,4,5-trihydroxy-6-(hydroxymethyl)-tetrahydro-2H-pyran-2-yl)methyl)-3-methylphenyl)isoindolin-1-one]	0.016
Cc1cc(-n2cc(-c3cccnc3)nn2)ccc1[C@@H](O)[C@H]1O[C@H](CO)[C@@H](O)[C@H](O)[C@@H]1O [Example 49, (2R,3S,4S,5S,6R)-2-((R)-hydroxy(2-methyl-4-(4-(pyridin-3-yl)-1H-1,2,3-triazol-1-yl)-phenyl)methyl)-6-(hydroxymethyl)tetrahydro-2H-pyran-3,4,5-triol]	0.015
CNC(=O)c1cccc(-c2ccc([C@H](O)[C@H]3OC(CO)[C@@H](O)[C@H](O)C3O)c(C(F)(F)F)c2)c1 (single isomer, unassigned) [Example 40]	5
CNC(=O)c1cccc(-c2ccc([C@@H](O)[C@H]3O[C@H](CO)[C@@H](O)[C@H](O)[C@@H]3O)c(C(F)(F)F)c2)c1 [Example 39, 4′-((R)-Hydroxy ((2R,3S,4S,5S,6R)-3,4,5-trihydroxy-6-(hydroxymethyl)-tetrahydro-2H-pyran-2-yl)methyl)-N-methyl-5′-(trifluoromethyl)biphenyl-3-carboxamide]	0.015
Cc1cc(-c2ccc3ccncc3c2)ccc1[C@@H](O)[C@H]1O[C@H](CO)[C@@H](O)[C@H](O)[C@@H]1O [Example 21, (2R,3S,4S,5S,6R)-2-((R)-Hydroxy (4-(isoquinolin-7-yl)-2-methylphenyl)methyl)-6-(hydroxymethyl)-tetrahydro-2H-pyran-3,4,5-triol]	0.016
Cc1cc(N=[N+]=[N-])ccc1[C@@H](O)[C@H]1O[C@H](CO)[C@@H](O)[C@H](O)[C@@H]1O [Example 47, (2R,3S,4S,5S,6R)-2-((R)-(4-azido-2-methylphenyl)(hydroxy)methyl)-6-(hydroxymethyl)tetrahydro-2H-pyran-3,4,5-triol]	0.25
Cc1cc(-c2ccc(C#N)cc2)ccc1[C@@H](O)[C@H]1O[C@H](CO)[C@@H](O)[C@H](O)[C@@H]1O [Example 46, 4′-((R)-hydroxy((2R,3S,4S,5S,6R)-3,4,5-trihydroxy-6-(hydroxymethyl)tetrahydro-2H-pyran-2-yl)methyl)-3′-methylbiphenyl-4-carbonitrile]	0.053
CNC(=O)c1cccc(-c2ccc(C(F)(F)[C@H]3O[C@H](CO)[C@@H](O)[C@H](O)[C@@H]3O)c(C)c2)c1 [Example 9, 4′-(difluoro((2S,3S,4S,5S,6R)-3,4,5-trihydroxy-6-(hydroxymethyl)tetrahydro-2H-pyran-2-yl)methyl)-N,3′-dimethylbiphenyl-3-carboxamide]	1.5
Cc1cc(-c2ccnc(-c3ccnc(Cl)c3)c2)ccc1[C@@H](O)[C@H]1O[C@H](CO)[C@@H](O)[C@H](O)[C@@H]1O [Example 23, (2R,3S,4S,5S,6R)-2-((R)-(4-(2′-Chloro-[2,4′-bipyridin]-4-yl)-2-methylphenyl) (hydroxy)methyl)-6-(hydroxymethyl)tetrahydro-2H-pyran-3,4,5-triol]	0.008
Cc1cc(-c2ccnc(N)c2)ccc1[C@@H](O)[C@H]1O[C@H](CO)[C@@H](O)[C@H](O)[C@@H]1O [Example 26, (2R,3S,4S,5S,6R)-2-((R)-(4-(2-Aminopyridin-4-yl)-2-methylphenyl) (hydroxy)methyl)-6-(hydroxymethyl)-tetrahydro-2H-pyran-3,4,5-triol]	0.039
CNc1cc(-c2ccc([C@@H](O)[C@H]3O[C@H](CO)[C@@H](O)[C@H](O)[C@@H]3O)c(C)c2)ccn1 [Example 24, (2R,3S,4S,5S,6R)-2-((R)-Hydroxy (2-methyl-4-(2-(methylamino)pyridin-4-yl)phenyl)methyl)-6-(hydroxymethyl)-tetrahydro-2H-pyran-3,4,5-triol]	0.032
Cc1cc(-c2ccc3nc[nH]c3c2)ccc1[C@@H](O)[C@H]1O[C@H](CO)[C@@H](O)[C@H](O)[C@@H]1O [Example 17, (2R,3S,4S,5S,6R)-2-((R)-(4-(3H-Benzo[d]imidazol-5-yl)-2-methylphenyl) (hydroxy)methyl)-6-(hydroxymethyl)-tetrahydro-2H-pyran-3,4,5-triol]	0.037
Cc1cc(-c2ccc3cccnc3c2)ccc1[C@@H](O)[C@H]1O[C@H](CO)[C@@H](O)[C@H](O)[C@@H]1O [Example 15, (2R,3S,4S,5S,6R)-2-((R)-Hydroxy (2-methyl-4-(quinolin-7-yl)phenyl)methyl)-6-(hydroxymethyl)-tetrahydro-2H-pyran-3,4,5-triol]	0.015
Cc1cc(-c2ccnc(Cl)c2)ccc1[C@@H](O)[C@H]1O[C@H](CO)[C@@H](O)[C@H](O)[C@@H]1O [Example 22, (2R,3S,4S,5S,6R)-2-((R)-(4-(2-Chloropyridin-4-yl)-2-methylphenyl) (hydroxy)methyl)-6-(hydroxymethyl)-tetrahydro-2H-pyran-3,4,5-triol]	0.027
Cc1cc(-c2cn3ccccc3n2)ccc1[C@@H](O)[C@H]1O[C@H](CO)[C@@H](O)[C@H](O)[C@@H]1O [Example 36, (2R,3S,4S,5S,6R)-2-((R)-Hydroxy (4-(imidazo[1,2-a]pyridin-2-yl)-2-methylphenyl)methyl)-6-(hydroxymethyl)-tetrahydro-2H-pyran-3,4,5-triol]	0.019
Cc1cc(-c2ccc3ccn(C(C)C)c(=O)c3c2)ccc1[C@@H](O)[C@H]1O[C@H](CO)[C@@H](O)[C@H](O)[C@@H]1O [Example 31, 7-(4-((R)-Hydroxy ((2R,3S,4S,5S,6R)-3,4,5-trihydroxy-6-(hydroxymethyl)-tetrahydro-2H-pyran-2-yl)methyl)-3-methylphenyl)-2-isopropylisoquinolin-1 (2H)-one]	0.006
